In brackets after ≈: the same amount, converted by molar mass.
What was measured:
[1] = test system: human umbilical vein endothelial cells (HUVEC); assay: Matrigel cord formation assay; format: cell-based; details: at both 0.01 and 0.001 μg/mL compared to untreated controls
Method: In vitro Matrigel antiangiogenesis assays were implemented according to the Developmental Therapeutics Program NCI/NIH protocols known to one of skill in the art. Matrigel, a basement membrane matrix, was obtained from BD Biosciences. Growth inhibition and cord formation assays were Conducted using human umbilical vein endothelial cells obtained from GlycoTeCh. HUVEC cells were grown in EGM-2 medium.
An aliquot of sixty microliters was placed in each well of an ice-cold 96-well plate. The plates were then left for 15 minutes at room temperature, then incubated for 30 minutes at 37° C. to permit the matrigel to polymerize. Meanwhile, HUVEC cells were harvested and diluted to a concentration of 2×10^5 cells/ml. A solution of 100 μL containing the compounds to be tested was added next. After 24 hours incubation, pictures were taken for each concentration using an inverted Nikon Diaphot microscope and D100 digital camera. Drug effect was assessed, compared to untreated controls, by measuring the length of cords formed and number ofjunctions.

Streptococcus pneumoniae = assay: reference broth microdilution susceptibility assay; format: cell-based; details: Table III
Method in brief: (§1)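 Broth microdilution susceptibility testing per NCCLS reference methods (M7-A5 for aerobic bacteria, M27-A for yeasts).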

Staphylococcus aureus = assay: reference broth microdilution susceptibility assay; format: cell-based; details: Table III
Method in brief: as §1

Escherichia coli = assay: reference broth microdilution susceptibility assay; format: cell-based; details: Table III
Method in brief: (§2)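 Compounds are serially diluted in broth and tested for microbial susceptibility by the standard microdilution procedure. Bacteria are handled per approved standard M7-A5 and yeasts per approved standard M27-A.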

Neisseria gonorrhoeae = assay: reference broth microdilution susceptibility assay; format: cell-based; details: Table III
Method in brief: as §1

[2] = test system: Stenotrophomonas maltophilia; assay: reference broth microdilution susceptibility assay; format: cell-based; details: Table III
Method in brief: as §1

Enterobacter cloacae = assay: reference broth microdilution susceptibility assay; format: cell-based; details: Table III
Method in brief: as §1

Candida albicans = assay: reference broth microdilution susceptibility assay; format: cell-based; details: Table III
Method in brief: as §2

Cryptococcus neoformans [3] = assay: reference broth microdilution susceptibility assay; format: cell-based; details: Table III
Method in brief: as §2

Enterococcus faecalis = assay: reference broth microdilution susceptibility assay; format: cell-based; details: Table III
Method in brief: as §1

Micrococcus luteus = assay: reference broth microdilution susceptibility assay; format: cell-based; details: Table III
Method in brief: as §2

Prostate DU-145 = assay: human cancer cell growth inhibition, sulforhodamine B assay; format: cell-based; details: 48 hours
Method in brief: (§3)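 Cells are incubated 48 hours, fixed with trichloracetic acid, then stained with sulforhodamine B. Absorbance is read automatically in microplates.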

CNS SF268 = assay: as above; format: cell-based; details: 48 hours
Method in brief: as §3

Lung-NSC NCI-H460 = assay: as above; format: cell-based; details: 48 hours
Method in brief: as §3

Breast MCF-7 = assay: as above; format: cell-based; details: 48 hours
Method in brief: as §3

Colon KM20L2 = assay: as above; format: cell-based; details: 48 hours
Method in brief: as §3

Pancreas BXPC-3 = assay: as above; format: cell-based; details: 48 hours
Method in brief: as §3

tubulin [4] = assay: inhibition of [3H]colchicine binding to tubulin; details: 1.0 μM tubulin, 5.0 μM [3H]colchicine, inhibitor at 1.0 μM, 10 minutes at 37° C.
Method: (§4) Tubulin polymerization was evaluated by turbidimetry at 350 nm using Beckman DU7400/7500 spectrophotometers as described in detail elsewhere. […] Varying concentrations of drug were preincubated with 10 μM:M ([…]) purified tubulin (See Hamel, E., et al., Separation of Active Tubulin and Microtubule-associated Proteins by Ultracentrifiigation and Isolation of a Component Causing the Formation of Microtubule Bundles, Biochemistry 1984, 23, 4173-4184). Samples were chilled on ice, GTP (0.4 mM) was added, and polymerization was followed at 30° C. The parameter measured was extent of the reaction after 20 minutes. Coichicine binding was measured as described in detail previously. Reaction mixtures contained 1.0 μM :M tubulin, 5.0:M, [^3H]colchicine (from Dupont), and inhibitor at 1.0 μM:M. Incubation was for 10 minutes at 37° C.

[5] = test system: microtubules in human umbilical vein endothelial cells (HUVEC); assay: disruption of microtubules in HUVEC; format: cell-based
Text: HUVECs were isolated according to methods know to one of skill in the art (see Jaffe, E. A. et al., Culture of Human Endothelial Cells Derived From Umbilical Veins. Identification by Morphologic and Immunologic Criteria, J. Clin. Invest. 1973, 52, 2754-2756.)

purified tubulin [6] = test system: T1, purified tubulin; assay: inhibition of tubulin polymerization (turbidimetry); format: biochemical; details: 10 μM tubulin, GTP 0.4 mM, 30° C., extent after 20 minutes; read-out: Inhibition of polymerization IC50 ± S.D.
T1 construct: other: 10 μM tubulin, GTP 0.4 mM, 30° C., extent after 20 minutes
Method: as §4
Tubulin Evaluations: Tubulin polymerization was evaluated by turbidimetry at […] using Beckman DU7400/7500 spectrophotometers as known to one of skill in the art. Varying concentrations of the compound were preincubated with 10 μM. […]

solubility in D2O = format: physicochemical; details: 1 mL D2O at 25° C.
Cryptococcus neoformans [7] = details: previously shown, Pettit et al. 2000; cited from earlier work
[8] = earlier study, Lin et al. 1988; cited from earlier work
purified tubulin [9] = details: earlier study, Lin et al. 1988; cited from earlier work
tubulin [10] = details: earlier study, Lin et al. 1988; cited from earlier work

COc1ccc(/C=C\c2cc(F)c(OC)c(OC)c2)cc1O [Compound 11a, 3-Fluoro-4,4′,5-trimethoxy-3′-hydroxy-Z-stilbene]
Cords length as well as junction numbers [1]: markedly reduced
Range of minimum inhibitory concentration, Streptococcus pneumoniae (Streptococcus pneumoniae): 64 µg/mL
Range of minimum inhibitory concentration, Staphylococcus aureus (Staphylococcus aureus): * (no inhibition at 64 μg/ml)
Range of minimum inhibitory concentration, Escherichia coli (Escherichia coli): * (no inhibition at 64 μg/ml)
Range of minimum inhibitory concentration, Neisseria gonorrhoeae (Neisseria gonorrhoeae): 32 µg/mL
Range of minimum inhibitory concentration, Stenotrophomonas maltophilia [2]: * (no inhibition at 64 μg/ml)
Range of minimum inhibitory concentration, Enterobacter cloacae (Enterobacter cloacae): * (no inhibition at 64 μg/ml)
Range of minimum inhibitory concentration, Candida albicans (Candida albicans): * (no inhibition at 64 μg/ml)
Range of minimum inhibitory concentration, Cryptococcus neoformans (Cryptococcus neoformans [3]): 64 µg/mL
Range of minimum inhibitory concentration, Enterococcus faecalis (Enterococcus faecalis): * (no inhibition at 64 μg/ml)
Range of minimum inhibitory concentration, Micrococcus luteus (Micrococcus luteus): 32 to 64 µg/mL
GI50 (Prostate DU-145; Homo sapiens, DU-145, Table I, read-out: Human cancer cell line inhibition (GI50) Prostate DU-145): < 0.01 µg/mL
GI50 (CNS SF268; Homo sapiens, SF-268, Table I, read-out: Human cancer cell line inhibition (GI50) CNS SF268): < 0.01 µg/mL
GI50 (Lung-NSC NCI-H460; Homo sapiens, NCI-H460, Table I, read-out: Human cancer cell line inhibition (GI50) Lung-NSC NCI-H460): < 0.01 µg/mL
GI50 (Breast MCF-7; Homo sapiens, MCF7, Table I, read-out: Human cancer cell line inhibition (GI50) Breast adn MCF-7): < 0.01 µg/mL
GI50 (Colon KM20L2; Homo sapiens, KM-20L2, Table I, read-out: Human cancer cell line inhibition (GI50) Colon KM20L2): 1.1 µg/mL (≈ 3.61 µM)
GI50 (Pancreas BXPC-3; Homo sapiens, BXPC-3, Table I, read-out: Human cancer cell line inhibition (GI50) Pancreas-a BXPC-3): 0.016 µg/mL (≈ 0.0526 µM)
Inhibition of colchicine binding % inhibition ± S.D. (tubulin [4]): 75 ± 6%
ability to disrupt microtubules in HUVEC [5]: disrupt microtubules
IC50 (purified tubulin [6]): 1.5 ± 0.2 µM

C1CCNCC1.C1CCNCC1.COc1ccc(/C=C\c2cc(I)c(OC)c(OC)c2)cc1OP(=O)(O)O [O]
human cancer cell line growth inhibition (GI50) Prostate DU-145 (Prostate DU-145; Table Ia): 0.0029 µg/mL
human cancer cell line growth inhibition (GI50) CNS SF268 (CNS SF268; Table Ia): 0.0044 µg/mL
human cancer cell line growth inhibition (GI50) Lung-NSC NCI-H460 (Lung-NSC NCI-H460; Table Ia): 0.0036 µg/mL
human cancer cell line growth inhibition (GI50) Breast MCF-7 (Breast MCF-7; Table Ia): 0.0065 µg/mL
human cancer cell line growth inhibition (GI50) Colon KM20L2 (Colon KM20L2; Table Ia): 0.51 µg/mL
human cancer cell line growth inhibition (GI50) Pancreas BXPC-3 (Pancreas BXPC-3; Table Ia): 0.32 µg/mL
Solubility (solubility in D2O): ≧4 mg/mL

combretastatin A-3 [Compound 3a, reference compound]
inhibition of growth of the pathogenic fungus Cryptococcus neoformans (Cryptococcus neoformans [7]): inhibited growth
activity relative to CA4 (1a) as an inhibitor of cell growth [8]: about one seventh as active
activity relative to CA4 (1a) as an inhibitor of tubulin assembly (purified tubulin [9]): about half as active
Human cancer cell line inhibition (GI50) Prostate DU-145 (Prostate DU-145; Table I): 0.0043 µg/mL
Human cancer cell line inhibition (GI50) CNS SF268 (CNS SF268; Table I): 0.0083 µg/mL
Human cancer cell line inhibition (GI50) Lung-NSC NCI-H460 (Lung-NSC NCI-H460; Table I): 0.19 µg/mL
Human cancer cell line inhibition (GI50) Breast adn MCF-7 (Breast MCF-7; Table I): 0.49 µg/mL
Human cancer cell line inhibition (GI50) Colon KM20L2 (Colon KM20L2; Table I): 1.2 µg/mL
Human cancer cell line inhibition (GI50) Pancreas-a BXPC-3 (Pancreas BXPC-3; Table I): 2.3 µg/mL
activity relative to CA4 (1a) as an inhibitor of colchicine binding to tubulin (tubulin [10]): about one fifth as active

From patent publication US20070167412A1, “HALOCOMBSTATINS AND METHODS OF SYNTHESIS THEREOF” (ARIZONA BOARD OF REGENTS, priority 2003, published 2007)
